What is called GI50 is the concentration at which growth is held to half of that of the control.

Four compounds from paper PMC6402572 (ChemMedChem, 2018) can be followed below.

Molecules are shown by their SMILES.

The test system of experiment [1] is HCT116 cells with SIRT2 overexpression. Conditions: read-out: GI50, anchorage-independent growth of HCT116 cells, SIRT2 expression, soft agar.
For experiment [2], the system named is HCT116 cells. Put plainly: Soft agar anchorage-independent growth assay, HCT116 cells. Conditions: read-out: GI50, anchorage-independent growth of HCT116 cells, Control, without SIRT2 overexpression. Format: cell-based.
The subject of experiment [3] is HME-1 cells. Put plainly: Cytotoxicity. The experiment is classed as cell-based. The conditions noted are these: read-out: GI50 in HME-1 cells; normal mammary epithelial cell line.
Experiment [4] has as its target T1, SIRT3 (Homo sapiens, UniProt Q9NTG7).
T1 sequence (Q9NTG7 1-399): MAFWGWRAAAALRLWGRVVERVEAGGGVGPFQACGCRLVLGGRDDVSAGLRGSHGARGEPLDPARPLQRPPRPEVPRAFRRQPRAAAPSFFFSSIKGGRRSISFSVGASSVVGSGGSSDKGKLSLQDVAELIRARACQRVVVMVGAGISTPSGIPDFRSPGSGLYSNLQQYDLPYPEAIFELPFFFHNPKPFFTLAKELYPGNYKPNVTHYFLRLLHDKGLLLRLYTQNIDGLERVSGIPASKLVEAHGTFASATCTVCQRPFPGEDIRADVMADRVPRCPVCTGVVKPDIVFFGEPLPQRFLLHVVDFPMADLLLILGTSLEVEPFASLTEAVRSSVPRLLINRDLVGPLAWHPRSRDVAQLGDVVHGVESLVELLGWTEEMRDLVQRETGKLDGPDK
Briefly: HPLC-based SIRT3 deacetylation assay. Format: biochemical. The conditions noted are these: with pre-incubation.

For experiment [5], the target named is SIRT6 (Homo sapiens, UniProt Q8N6T7). Put plainly: HPLC-based SIRT6 demyristoylation assay. Conditions: with pre-incubation. Format: biochemical.
Experiment [6] relates to MCF10A cells. Put plainly: Cytotoxicity. The experiment is classed as cell-based. The conditions noted are these: read-out: GI50 in MCF10A cells; normal mammary epithelial cell line.

SIRT6, sequence (Q8N6T7 whole entry, species assumed): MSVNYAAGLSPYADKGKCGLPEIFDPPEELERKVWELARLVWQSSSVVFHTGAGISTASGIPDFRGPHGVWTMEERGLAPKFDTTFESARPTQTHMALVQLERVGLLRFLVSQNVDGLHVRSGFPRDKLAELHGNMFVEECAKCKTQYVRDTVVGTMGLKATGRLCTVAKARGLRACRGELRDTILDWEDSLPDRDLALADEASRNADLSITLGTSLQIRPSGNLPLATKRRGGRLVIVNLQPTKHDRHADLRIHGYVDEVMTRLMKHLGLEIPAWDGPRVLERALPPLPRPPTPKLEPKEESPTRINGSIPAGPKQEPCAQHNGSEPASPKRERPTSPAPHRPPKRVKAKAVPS

As to `N#C/C(=C\c1ccc(-c2cc(Cl)ccc2Cl)o1)C(=O)Nc1cccc2ncccc12` [AGK2], the figures for the GI50 in experiment [1] and in experiment [2] were 27.6 µM and 24.1 µM, respectively.
On the same counts, the results for `Cc1cc(C)nc(SCC(=O)Nc2ncc(Cc3cccc4ccccc34)s2)n1` [SirReal2] are 58.1 µM and 55.8 µM.
For `CCCCCCCCCCCCCC(=S)NCCCCC(NC(=O)OCc1ccccc1)C(=O)Nc1ccccc1` (centres unmarked) [TM], the GI50 in experiment [1] was 24.2 µM; in experiment [3], greater than 50 µM; in experiment [2] it was 13.5 µM; in experiment [6], greater than 50 µM. Further, the “Inhibition of SIRT3” value in experiment [4] is listed as “essentially did not inhibit”. Also, the “Inhibition of SIRT6” value in experiment [5] is on record as “essentially did not inhibit”.
Turning to `CN(C)CCCCC(=O)Nc1ccc(NC(=S)NC(=O)c2ccc(C(C)(C)C)cc2)cc1` [Tenovin-6], in experiment [2], the GI50 was found to be 2.1 µM.
